Measured values taken from PMC12444472, “BCI inhibits MKP3 by targeting the kinase-binding domain and disrupting ERK2 interaction” (The Journal of Biological Chemistry, 2025).
Entries after “also recorded” stand apart in the source; their conditions may differ.

Legend:
MKP3^CD = target: T1, MKP3^CD (Homo sapiens, UniProt Q16828); test: MST affinity measurement; assay type: binding
T1 construct: ^15N-labeled MKP3^1–154, MKP3^14–152, MKP3^204–350; made in house; host or cells: Escherichia coli BL21(DE3)
T1 sequence (Q16828 204-350): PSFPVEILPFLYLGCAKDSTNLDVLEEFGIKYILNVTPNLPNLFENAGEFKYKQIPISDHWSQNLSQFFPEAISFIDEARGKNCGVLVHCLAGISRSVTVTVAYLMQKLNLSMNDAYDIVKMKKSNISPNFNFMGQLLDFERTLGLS
Procedure: (§1) MST measurements were performed using fluorescently labeled proteins and the inhibitor BCI (CAS: 1245792-51-1; TargetMol) on a Monolith instrument (NanoTemper Technologies). The RED–Tris–NTA second-generation dye was dissolved in MST buffer (20 mM Hepes, pH 7.4, 200 mM NaCl, and 0.05% Tween-20) to prepare a 5 μM stock solution. Fluorescent labeling of MKP proteins followed the standard protocol of the MO-L018 RED–Tris–NTA protein labeling kit, leveraging the His-tag–dye interaction.
(§2) The BCI compound was prepared as a 600 to 750 μM stock solution in MST buffer with 10% DMSO to enhance solubility, followed by a 16-point serial dilution. The diluted BCI solutions were thoroughly mixed with labeled MKP proteins (50 nM) at a 1:1 volume ratio, yielding a final volume of 10 μl. The reaction mixtures were incubated in the dark for 10 min at room temperature before being loaded into standard glass capillaries. Measurements were carried out on the Monolith instrument (100% LED, 40% IR laser power) with a 20 s laser on time. The normalized fluorescence values from triplicate measurements were averaged at each concentration and fitted to a 1:1 binding model using the KD model in MO.Affinity software (v3.0.5, NanoTemper Technologies) to determine the binding affinities between MKP proteins and the BCI inhibitor. […]

MKP5^CD = target: T2, MKP5^CD (Homo sapiens, UniProt Q9Y6W6); test: MST affinity measurement; assay type: binding
T2 construct: MKP5(320–467) (MKP5^CD); made in house; host or cells: Escherichia coli BL21(DE3)
T2 sequence (Q9Y6W6 320-467): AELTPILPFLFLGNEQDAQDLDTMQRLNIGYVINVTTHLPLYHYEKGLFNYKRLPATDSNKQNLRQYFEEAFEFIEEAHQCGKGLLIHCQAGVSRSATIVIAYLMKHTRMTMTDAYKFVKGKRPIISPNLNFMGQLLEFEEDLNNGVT
Procedure: as §1, §2

MKPX^KBD = target: T3, MKPX^KBD (Homo sapiens, UniProt Q16829); test: NMR titration (1H-15N HSQC); assay type: binding; details: molar ratio 1:2
T3 construct: MKPX(1–140) (MKPX^KBD); made in house; host or cells: Escherichia coli BL21(DE3)
T3 sequence (Q16829 1-140 isoform Q16829-2): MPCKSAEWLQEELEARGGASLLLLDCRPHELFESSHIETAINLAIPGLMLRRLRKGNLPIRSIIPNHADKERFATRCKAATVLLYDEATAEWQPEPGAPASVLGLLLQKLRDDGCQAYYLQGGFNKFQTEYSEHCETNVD
Procedure: NMR data were collected at 298 K on a Bruker AVANCE NEO 800 MHz spectrometer (Bruker BioSpin) equipped with a ^1H&^19F/^13C/^15N TCI cryogenic probe. Backbone resonances of MKP3^1–154 were assigned using 2D/3D experiments, including 2D ^1H–^15N HSQC and 3D ^1H/^13C/^15N CBCA(CO)NH, HNCACB, HNCO, and HN(CA)CO, performed with uniformly ^13C/^15N labeled protein at a final concentration of 0.39 mM in buffer containing 20 mM imidazole (pH 6.0), 100 mM NaCl, 5 mM DTT, 0.5 mM EDTA, and 5% (v/v) D2O. The buffer used for backbone resonance assignment was similar to that used for the previously reported NMR structure ([15]). NMR titration experiments were conducted using ^15N-labeled MKP3^1–154, MKP3^14–152, MKP3^204–350, MKP1^1–141, MKP2^5–159, MKPX^1–140, MKP4^1–143, and MKP5^139–287. 2D ^1H–^15N HSQC spectra of ^15N-labeled MKPs^KBD (0.1 mM) were acquired in the absence and presence of BCI (50 mM stock in DMSO-d6) in buffer containing 50 mM KH2PO4–K2HPO4 (pH 7.2), 100 mM KCl, 1 mM Tris(2-carboxyethyl)phosphine hydrochloride, 1 mM EDTA, and 5% (v/v) D2O. Control experiments, in which only the corresponding volume of DMSO-d6 was added to ^15N-labeled proteins, were performed to exclude possible effects of DMSO on the interactions. For ^15N T1 measurements, the relaxation delay times were set to 20 (×2), 100, 200 (×2), 300, 400, 600 (×2), 800, 1200, and 1600 ms. For ^15N T2 measurements, the delay times were 7.84, 15.68 (×2), 23.52, 31.36 (×2), 39.2, 47.04 (×2), 54.88, 62.72, 78.4, 94.08, and 109.76 ms. The relaxation rates R1 (1/T1) and R2 (1/T2) for each residue were determined by fitting the peak intensities from spectra acquired at the various delay times to a single-exponential decay function: I/I0 = exp(-R1,2·t), where I0 is the intensity at t = 0, and I is the intensity at a delay time t. Repeated measurements were used to estimate the uncertainties of the R1 and R2 values via Monte Carlo analysis. Heteronuclear steady-state ^1H–^15N NOE experiments were acquired in an interleaved mode, with 5 s of ^1H saturation for NOE build-up and 5 s of relaxation delay for the reference spectra. Repeated experiments were performed to estimate uncertainties, and the propagated error for each NOE value was calculated using the following equation: σNOE = NOE × ((σsat/Isat)^2+(σunsat/Iunsat)^2)^1/2, where σsat and σunsat are the SDs of the saturated and unsaturated spectra, respectively, and Isat and Iunsat are the corresponding signal intensities. NMR data were processed using TopSpin 4.1.1 (Bruker BioSpin) or NMRPipe ([54]) and analyzed with POKY ([55]).

[1] = target: T4, MKP3^KBD and ERK2 complex (Homo sapiens, UniProt Q16828); test: NMR competitive binding titration of ERK2 and BCI; details: excess BCI added to MKP3^KBD and ERK2 complex
T4 construct: spectra of ^15N-MKP3^1–154 in the presence of ERK2; made in house; host or cells: Escherichia coli BL21(DE3)
T4 sequence (Q16828 1-154): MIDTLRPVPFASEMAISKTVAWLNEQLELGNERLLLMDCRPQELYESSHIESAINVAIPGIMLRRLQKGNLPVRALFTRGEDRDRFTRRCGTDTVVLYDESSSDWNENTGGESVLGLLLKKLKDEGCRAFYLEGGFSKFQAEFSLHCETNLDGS
Procedure: NMR data were collected at 298 K on a Bruker AVANCE NEO 800 MHz spectrometer (Bruker BioSpin) equipped with a ^1H&^19F/^13C/^15N TCI cryogenic probe. Backbone resonances of MKP3^1–154 were assigned using 2D/3D experiments, including 2D ^1H–^15N HSQC and 3D ^1H/^13C/^15N CBCA(CO)NH, HNCACB, HNCO, and HN(CA)CO, performed with uniformly ^13C/^15N labeled protein at a final concentration of 0.39 mM in buffer containing 20 mM imidazole (pH 6.0), 100 mM NaCl, 5 mM DTT, 0.5 mM EDTA, and 5% (v/v) D2O. The buffer used for backbone resonance assignment was similar to that used for the previously reported NMR structure ([15]). […] The relaxation rates R1 (1/T1) and R2 (1/T2) for each residue were determined by fitting the peak intensities from spectra acquired at the various delay times to a single-exponential decay function: I/I0 = exp(-R1,2·t), where I0 is the intensity at t = 0, and I is the intensity at a delay time t. […] Repeated experiments were performed to estimate uncertainties, and the propagated error for each NOE value was calculated using the following equation: σNOE = NOE × ((σsat/Isat)^2+(σunsat/Iunsat)^2)^1/2, where σsat and σunsat are the SDs of the saturated and unsaturated spectra, respectively, and Isat and Iunsat are the corresponding signal intensities. NMR data were processed using TopSpin 4.1.1 (Bruker BioSpin) or NMRPipe ([54]) and analyzed with POKY ([55]).

MKP3 = details: cited from earlier work

Q: With `O=C1/C(=C/c2ccccc2)C(NC2CCCCC2)c2ccccc21` (stereo not drawn) [BCI, (E)-2-benzylidene-3-(cyclohexylamino)-2,3-dihydro-1H-inden-1-one] as the compound, how does the “binding by MST” value (MKP3^CD) read?
A: no detectable binding; also recorded: no binding was detected

Q: And the “binding by MST” value (MKP5^CD)?
A: no interaction was detected

Q: What about the “perturbation of NMR spectrum” value (MKPX^KBD) of the same compound?
A: Significant peak broadening

Q: And the “effect on ERK2-bound MKP3^KBD spectrum” value [1]?
A: reversion of specific MKP3^KBD peaks to their ERK2-unbound state

Q: What about the “effect on ERK2-mediated MKP3 activity” value (MKP3; ERK2-stimulated, OMFP substrate) of the same compound?
A: inhibits

Q: What about the “effect on MKP3's basal activity toward OMFP” value (MKP3; basal, without ERK2) of the same compound?
A: does not affect
